Results taken from US10088490B2, “Assay for analytes using multiple receptors” (Siemens Healthcare Diagnostics Inc., priority 2010, dated 2018).

Experiments:
Assay type in all cases: binding
[1] = test system: Antibody A specific for cortisol (clone 16DC/17.7, IgG1κ); assay: LOCI competitive cortisol immunoassay, cross-reactivity screening with Biotinylated Antibody A Reagent; conditions: 100% A Biotinylated Antibody; steroid-stripped serum with cortisol (5 ng/dL)
Method: (§1) The antibodies were subjected to analytical size exclusion chromatography prior to any manipulations.
(§2) NHS-PEO4-Biotin was dissolved fresh at 10 mg/mL in Antibody Dialysis Buffer. […] The mixture was rocked at 25° C. for exactly 3 hours. A 200 mM solution of glycine was prepared by dissolving 750 mg glycine in Antibody Dialysis Buffer to a total volume of 50 mL. At the end of the 3-hour biotinylation reaction, 1.52 mL of the 200 mM glycine solution was added to the reaction mixture. The quenched reaction mixture was rocked an additional 60 minutes at 25° C.
(§3) The biotinylated antibody was then purified using preparatory HPLC using Antibody Dialysis Buffer as the mobile phase. […] This reagent was designated as the Biotinylated Antibody Reagent.
(§4) The assay used for screening purposes was conducted on the DIMENSION® VISTA® instrument (system) (Siemens Healthcare Diagnostics Inc., Newark Del.). Initially, 20 μL Biotinylated Antibody Reagent with 15 μL system water was added to the vessel. After 22 seconds, 15 μL sample with 15 μL system water were added to the vessel. After almost 4 minutes, 20 μL Chemibead Reagent with 15 μL system water were added to the vessel. Approximately 7 minutes later, 20 μL Sensibead Reagent with 135 μL system water was added to the vessel. The LOCI® read was taken after approximately 5 minutes. The assay from the first reagent addition to the final read took approximately 16 minutes. The contents of the vessel when the final read is taken were as follows: 2 ng/mL Biotinylated Antibody Reagent, 4 μg/mL Chemibead Reagent, 56 μg/mL Sensibead Reagent, and […] sample. The assay is a competitive format, which means that the greater the concentration of analyte in the sample, the smaller is the signal generation. This is because a detectable complex is formed by the Biotinylated Antibody Reagent, Chemibead Reagent, and Sensibead Reagent in the absence of analyte. The presence of analyte decreases the proportion of Biotinylated Antibody Reagent that is free to form detectable complexes.
(§5) Initial testing used Biotinylated Antibody A Reagent with the other reagents and the methodology described above to analyze the steroid-stripped serum with cortisol. The panel of 34 cross-reactants were individually added to the steroid-stripped serum with a defined concentration of cortisol (5 ng/dL) and assayed. Cross-reactivity data were calculated as follows:
(§6) [formula] The same testing was performed using Biotinylated Antibody L Reagent. The compilation of the percent cross-reactivities for the 34 compounds is referred to as the cross-reactivity profile. The apparent cortisol concentration is the cortisol value obtained when testing a sample containing cortisol and the interfering substance by the above test method that also detects the interfering substance to some degree.

[2] = test system: Antibody L specific for cortisol (clone XM210, IgG2a); assay: LOCI competitive cortisol immunoassay, cross-reactivity screening with Biotinylated Antibody L Reagent; conditions: 100% L Biotinylated Antibody; steroid-stripped serum with cortisol (5 ng/dL)
Method: as §1, §2, §3, §4, §5, §6

[3] = test system: mixture of Biotinylated Antibody A Reagent and Biotinylated Antibody L Reagent; assay: LOCI competitive cortisol immunoassay, cross-reactivity with mixtures of Biotinylated Antibody A and L Reagents; conditions: for percent cross reactivity: steroid-stripped serum with cortisol
Method: as §4, §5, §6
A further study was performed by mixing Biotinylated Antibody A Reagent with Biotinylated Antibody L Reagent in a 50:50 mixture; 80% Biotinylated Antibody A Reagent: 20% Biotinylated Antibody L Reagent; 75% Biotinylated Antibody A Reagent: 25% Biotinylated Antibody L Reagent; and 70% Biotinylated Antibody A Reagent: 30% Biotinylated Antibody L Reagent. […] These reagents were used to test cross-reactivity in stripped serum with cortisol.

[4] = 70% A 30% L Biotinylated Antibody
[5] = 75% A 25% L Biotinylated Antibody
[6] = 80% A 20% L Biotinylated Antibody

| SMILES | percent cross reactivity [1] [%] | percent cross reactivity [2] [%] | percent cross reactivity [3, 4] [%] | percent cross reactivity [3, 5] [%] | percent cross reactivity [3, 6] [%] | decrease of percent cross-reactivity ([3]; incorporation of 25% Biotinylated Antibody Reagent L versus 100% A) |
| --- | --- | --- | --- | --- | --- | --- |
| CC(=O)[C@@]1(O)CC[C@H]2[C@@H]3CCC4=CC(=O)CC[C@]4(C)[C@H]3C(=O)C[C@@]21C [21-deoxycortisone] | 36.4 | 1.4 | 2.5 | 2.7 | 3.1 | – |
| CC(=O)[C@@]1(O)CC[C@H]2[C@@H]3CCC4=CC(=O)CC[C@]4(C)[C@H]3CC[C@@]21C [17α-hydroxyprogesterone] | 24.1 | 0.9 | 1.6 | 1.8 | 2.1 | – |
| CC(=O)[C@@]1(O)CC[C@H]2[C@@H]3CC=C4C[C@@H](O)CC[C@]4(C)[C@H]3CC[C@@]21C [17β-hydroxypregnenolone] | 0.1 | 0.1 | 0.1 | 0.1 | 0.1 | – |
| C[C@]12CC[C@@H](O)C[C@H]1CC[C@@H]1[C@@H]2[C@@H](O)C[C@@]2(C)[C@H]1CC[C@]2(O)[C@H](O)CO [β-cortol] | 0.0 | 0.0 | 0.0 | 0.0 | 0.0 | – |
| C[C@]12CCC(=O)C[C@H]1CC[C@@H]1[C@@H]2[C@@H](O)C[C@@]2(C)[C@H]1CC[C@]2(O)C(=O)CO [5β-dihydrocortisol] | 0.4 | 1.3 | 1.0 | 0.9 | 0.8 | – |
| C[C@]12CC[C@@H](O)C[C@H]1CC[C@@H]1[C@@H]2[C@@H](O)C[C@@]2(C)[C@H]1CC[C@]2(O)[C@@H](O)CO [α-cortol] | 0.2 | 1.0 | 0.7 | 0.6 | 0.5 | – |
| C[C@]12CCC(=O)C=C1[C@H](O)C[C@@H]1[C@@H]2[C@@H](O)C[C@@]2(C)[C@H]1CC[C@]2(O)C(=O)CO [6β-hydroxycortisol] | 2.7 | 100.0 | 6.9 | 6.2 | 5.5 | – |
| C[C@]12CC[C@H]3[C@@H](CCC4=CC(=O)CC[C@@]43C)[C@@H]1CC[C@@H]2C(=O)CO [11-deoxycorticosterone] | 0.7 | 0.8 | 0.8 | 0.8 | 0.8 | – |
| C[C@]12CC[C@@H](O)C[C@H]1CC[C@@H]1[C@@H]2C(=O)C[C@@]2(C)[C@H]1CC[C@]2(O)[C@@H](O)CO [α-cortolone] | 0.0 | 0.0 | 0.0 | 0.0 | 0.0 | – |
| C[C@]12CCC(=O)C=C1CC[C@@H]1[C@@H]2[C@@H](O)C[C@@]2(C)[C@H]1CC[C@]2(O)C(=O)COS(=O)(=O)O [sulphate 21-cortisol] | 22.5 | 0.2 | 0.6 | 0.7 | 0.9 | – |
| C[C@]12C=CC(=O)C=C1CC[C@@H]1[C@@H]2C(=O)C[C@@]2(C)[C@H]1CC[C@]2(O)C(=O)CO [prednisone] | 26.5 | 0.6 | 1.1 | 1.3 | 1.5 | – |
| C[C@]12CC[C@@H](O)C[C@@H]1CC[C@@H]1[C@@H]2[C@@H](O)C[C@@]2(C)[C@H]1CC[C@]2(O)C(=O)CO [allotetrahydrocortisol] | 4.7 | 8.1 | 7.1 | 6.5 | 6.0 | – |
| C[C@]12CCC(=O)C=C1CC[C@@H]1[C@@H]2CC[C@@]2(C)[C@H]1CC[C@]2(O)C(=O)CO [11-deoxycortisol] | 39.8 | 1.7 | 3.0 | 3.2 | 3.7 | – |
| CC(=O)[C@H]1CC[C@H]2[C@@H]3CCC4=CC(=O)CC[C@]4(C)[C@H]3[C@@H](O)C[C@]12C [11β-hydroxyprogesterone] | 0.6 | 0.7 | 0.7 | 0.7 | 0.6 | – |
| C[C@]12C[C@H](O)[C@H]3[C@@H](CCC4=CC(=O)CC[C@@]43C)[C@@H]1CC[C@@H]2C(=O)CO [corticosterone] | 0.6 | 3.0 | 1.8 | 1.5 | 1.4 | – |
| C[C@]12CC[C@@H](O)C[C@H]1CC[C@@H]1[C@@H]2CC[C@@]2(C)[C@H]1CC[C@]2(O)C(=O)CO [tetrahydro-11-deoxycortisol] | 0.3 | 0.2 | 0.2 | 0.2 | 0.2 | – |
| C[C@]12CC[C@@H](O)C[C@H]1CC[C@@H]1[C@@H]2C(=O)C[C@@]2(C)[C@H]1CC[C@]2(O)C(=O)CO [tetrahydrocortisone] | 0.5 | 0.1 | 0.2 | 0.2 | 0.3 | – |
| C[C@]12CC(=O)[C@H]3[C@@H](CCC4=CC(=O)CC[C@@]43C)[C@@H]1CC[C@@H]2C(=O)CO [dehydrocorticosterone] | 0.6 | 0.8 | 0.7 | 0.7 | 0.7 | – |
| C[C@]12CCC(=O)C=C1CC[C@@H]1[C@@H]2C(=O)C[C@@]2(C)[C@H]1CC[C@]2(O)C(=O)CO [cortisone] | 41.7 | 1.4 | 2.5 | 2.8 | 3.1 | greater than 90% |
| CC(=O)[C@@]1(O)CC[C@H]2[C@@H]3CCC4=CC(=O)CC[C@]4(C)[C@H]3[C@@H](O)C[C@@]21C [21-deoxycortisol] | 8.3 | 6.4 | 7.2 | 6.9 | 6.9 | – |
| C[C@]12CCC(=O)C=C1CC[C@@H]1[C@@H]2C(=O)C[C@@]2(C)[C@H]1CC[C@]2(O)[C@H](O)CO [20β-dihydrocortisone] | 0.1 | 0.1 | 0.1 | 0.1 | 0.1 | – |
| C[C@]12CCC(=O)C=C1CC[C@@H]1[C@@H]2[C@@H](O)C[C@@]2(C)[C@H]1CC[C@]2(O)[C@@H](O)CO [20α-dihydrocortisol] | 0.4 | 0.9 | 0.7 | 0.6 | 0.6 | – |
| C[C@]12CC[C@@H](O)C[C@H]1CC[C@@H]1[C@@H]2[C@@H](O)C[C@@]2(C)[C@H]1CC[C@]2(O)C(=O)CO [tetrahydrocortisol] | 0.0 | 0.1 | 0.1 | 0.1 | 0.0 | – |
